According to US8357653B2, “System and method for inhibiting cellular proliferation with tachykinins” (priority 2000, dated 2013):
Values joined by “and” are separate entries in the source; they are usually repeats but may differ in a detail not shown here. Equal values may be shown once. Read-outs that look alike come from different tables or passages of the source. Ends that are not written are not given here. Peptide text beside a SMILES is read from it.

Columns and labels:
[1] = test system: Lewis lung carcinoma cells; assay: in vivo tumorigenicity model, Lewis lung carcinoma in C57Bl/6 mice, intra-tumor injection; conditions: for tumor growth inhibition: Cisplatin group
Description: The inhibitory action of Sialokinin I and II, SEQ. ID. NO. 1 and NO. 2, against tumor tissue proliferation (Lewis lung carcinoma) was investigated. To test the efficacy of three different concentrations of peptide test articles in an in vivo tumorigenicity model using Lewis lung carcinoma cells.
Lewis lung carcinoma cells were obtained from ATCC and cultured in monolayers in DMEM supplemented with 10% heat-inactivated FBS, 4 mM L-glutamine, 100 μg/ml streptomycin and 100 units/ml penicillin for two passage cycles at 37° C. in 95% air and 5% CO2. Cells were harvested from subconfluent cultures by 60-second exposure to trypsin/EDTA, washed in serum free medium and brought to the correct concentration of cells in PBS.
On day 0, 35 female C57Bl/6 mice 6-8 weeks of age were shaved on the right lateral thorax and injected subcutaneously with 1.0×10^6 Lewis lung carcinoma cells. A total of 35 mice were injected so that 25 tumor-bearing mice with the correct tumor size could be used for the study. Tumors were allowed to develop for four days post cell injection at which time biweekly tumor measurements (L×W), in millimeters, were recorded for 3 weeks. […] The data are presented as mean tumor mass plotted over time.
When tumors reached a size of 100-200 mg, 25 mice were selected and randomly sorted into five groups. The five groups of Lewis lung tumor bearing mice were used to test three different test article concentrations.
The first group contained animals injected with the test article carrier as a control group. The control animals were injected with 50 μl intra-tumor injections of sterile saline and 1% bovine serum albumin (BSA), three times per week for a total of 5 doses. The control group contained mice that received the vehicle as a negative control.
The second group contained animals treated with 6 mg/kg of Cisplatin (Platinol; Bristol-Myers Squibb Co.) as a positive control administered according to manufacture's specifications by intravenous tail vein injection, every fourth day for a total of 3 doses. The Cisplatin group contained mice that received Cisplatin as a positive control.
The third group contained animals that received 5 μM of test article dissolved in sterile saline and 1% bovine serum albumin (BSA) injected intra-tumor with 50 μl injections, three times per week for a total of 5 doses.
The fourth group contained animals that received 10 μM of test article dissolved in sterile saline and 1% bovine serum albumin (BSA) injected intra-tumor with 50 μl injections, three times per week for a total of 5 doses.
The fifth group contained animals that received 100 μM of test article dissolved in sterile saline and 1% bovine serum albumin (BSA) injected intra-tumor with 50 μl injections, three times per week for a total of 5 doses.
Injections began on the day that animals were randomly sorted into one of five groups. Animals in the control, 5 μM, 10 μM, and 100 μM groups were dosed every other workday with an intra-tumor subcutaneous injection for a total of 5 doses. Tumor size was measured and recorded twice weekly using calipers. Mice were examined twice weekly for morbidity, and any abnormal findings were recorded. When tumors reached a mean target size of 1000 mg in control mice the animals were euthanized and two mice from each group were randomly selected and sent to necropsy for tumor and tissue collection. Mice were photographed before harvesting tumors and major organs (heart, lung, liver, kidney, spleen, GI tract and brain). No mice died while on study.

guinea pig ileum = conditions: read-out: K0.5; cited from earlier work
ASM cells = conditions: cited from earlier work; for proliferative response in ASM cells: dose range of 10^−12 to 10^−6M
[2] = test system: Lewis lung carcinoma cells; assay: in vivo tumorigenicity model, Lewis lung carcinoma in immuno-compromised (nu/nu) mice, intravenous injection
Description: To test the efficacy of different concentrations of the Sialokinin peptides, test articles, SEQ. ID. NO. 1 and NO. 2, in an in vivo tumorigenicity model, a study was conducted with Lewis lung carcinoma in immuno-compromised (nu/nu) mice. Lewis lung carcinoma cells were cultured in Dulbecco's Modified Eagles Medium (DMEM), supplemented with 4 mM L-glutamine, 0.1 mM non-essential amino acids, 10% heat inactivated fetal bovine serum (FBS), […] Gentamicin and 250 μg/ml Fungizone. Cells were cultured in 5% CO2 and 95% air at 37° C. Exponentially growing cells were harvested and washed twice in phosphate buffered saline (PBS) to remove any traces of trypsin or serum. The washed cells were suspended in Hanks Balanced Salt Solution (HBSS) for injection.
Athymic nude mice were injected subcutaneously in the right lateral thorax with 10^4 Lewis lung carcinoma cells. A total of 38 mice were injected, with 33 tumor-bearing mice used in the study. When tumors reached a target window size of 100-200 mg, 33 tumor-bearing mice were randomly selected and sorted into one of three groups. Group 1 contained mice that received the test article carrier by an IV injection as a negative control. […]
Tumor measurements were recorded three times a week using calipers. […] Clinical observations on each mouse were done twice weekly for signs of toxicity and morbidity and any abnormal findings were recorded. […]

warts = assay: human wart trial, subcutaneous injection into the wart; assay type: in vivo
Description: A trial was conducted to observe the anti-proliferative action of Sialokinins, SEQ. ID. NO. 1 and NO. 2, in the treatment of warts in a human application. This trial, conducted by a dermatologist, involved four volunteer human subjects who received two (2) subcutaneous injections of Sialokinin I and Sialokinin II into the wart. Injections of 100 μl of 5 μM were administered subcutaneously to each volunteer.
The warts chosen for this trial had been diagnosed as stable and thus any observable change in the size of the wart to the injections would be significant. […] Of the 3 patients, reductions in size of 19%, 79%, and 31% were observed. When no further treatments were administered, no further reductions were observed.

spleen cell = conditions: 25 μg/ml of salivary gland extract, cited from earlier work
[3] = two 100 μl injections of 5 μM into the wart

**Q.** Which body weight change ([1]; 6 mg/kg intravenous) does the source give for `N.N.[Cl][Pt][Cl]` [Cisplatin] here?
**A.** The body weight change was “significant weight loss”.

**Q.** What about the “growth compared to control tumor growth” value ([1]; 6 mg/kg intravenous, day 7) of the same compound?
**A.** Its value is 58%.

**Q.** What about the “growth compared to control tumor growth” value ([1]; 6 mg/kg intravenous, day 10) of the same compound?
**A.** The value was 93%.

**Q.** What about the “growth compared to control tumor growth” value ([1]; 6 mg/kg intravenous, day 15) of the same compound?
**A.** The value was 73%.

**Q.** What about the “tumor size compared to control group mice” value ([1]; 6 mg/kg intravenous, p<0.05) of the same compound?
**A.** Its value is “significantly smaller tumors”.

**Q.** What about the tumor growth inhibition ([1]; day 7) of the same compound?
**A.** Its tumor growth inhibition is 42%.

**Q.** What about the tumor growth inhibition ([1]; day 10) of the same compound?
**A.** Its tumor growth inhibition is 7%.

**Q.** And the tumor growth inhibition ([1]; day 15)?
**A.** The tumor growth inhibition was 27%.

**Q.** For `CSCC[C@H](NC(=O)[C@H](CC(C)C)NC(=O)CNC(=O)[C@H](Cc1ccc(O)cc1)NC(=O)[C@H](Cc1ccccc1)NC(=O)[C@H](CCCCN)NC(=O)[C@H](CC(=O)O)NC(=O)CNC(=O)[C@@H](NC(=O)[C@@H](N)CC(=O)O)[C@@H](C)O)C(N)=O` [Sialokinin II, Asp^1-Thr^2-Gly^3-Asp^4-Lys^5-Phe^6-Tyr^7-Gly^8-Leu^9-Met^10-NH2] (H-DTGDKFYGLM-NH2), which EC50 (guinea pig ileum) is on record?
**A.** The EC50 was 5.07 nM.

**Q.** What does the source list for “Arg^1-Pro^2-Lys^3-Pro^4-Gln^5-Gln^6-Phe^7-Phe^8-Gly^9-Leu^10-Met^11-NH2 [Substance P]”?
**A.** EC50 (guinea pig ileum): 4.94 nM; concentration eliciting the maximum proliferative response (ASM cells; ASM cells): 10^−4 M; ASM cell number (ASM cells; concentration range of 10^−14 to 10^−4M): dose-dependent increases in ASM cell number

**Q.** For “Asn^1-Thr^2-Gly^3-Asp^4-Lys^5-Phe^6-Tyr^7-Gly^8-Leu^9-Met^10-NH2 (NTGDKFYGLM-NH2; listed as Aedes aegypti) [SK1]”, which EC50 (guinea pig ileum) is on record?
**A.** Its EC50 is 6.58 nM.

**Q.** And the “necropsy, toxicity or tissue necrosis” value ([2]; 200 μl intravenous injection of 5 μM and 10 μM)?
**A.** The value was “no detectable toxicity or tissue necrosis”.

**Q.** What about the “weight loss in study animals” value ([2]; intravenous 5 μM and 10 μM, during the study period) of the same compound?
**A.** Its value is “No weight loss”.

**Q.** What about the side effects (warts; first clinical exposure, human) of the same compound?
**A.** Its side effects is “no side effects were detected”.

**Q.** And the systemic symptoms (warts; two 100 μl injections of 5 μM)?
**A.** The systemic symptoms was “no systemic symptoms were detected”.

**Q.** And the “toxicity in trial subjects” value (warts; two 100 μl injections of 5 μM)?
**A.** The value was “no measured or observed toxicity”.

**Q.** What about the “patients showing a reduction in wart size” value (warts; [3]) of the same compound?
**A.** The value was 3 of 4.

**Q.** What about the “reduction in wart size (individual patients)” value (warts; [3]) of the same compound?
**A.** The value was 19% and 79% and 31%.

**Q.** What about the “suppression of spleen cell proliferation” value (spleen cell; stimulated with IL-2, antigen activated cells) of the same compound?
**A.** Its value is 39%.

**Q.** What about the “suppression of spleen cell proliferation” value (spleen cell; stimulated with IL-2, naïve cells) of the same compound?
**A.** Its value is 66%.

**Q.** And the “suppression of spleen cell proliferation” value (spleen cell; stimulated with IL-4, antigen activated cells)?
**A.** The value was 27%.

**Q.** What about the “suppression of spleen cell proliferation” value (spleen cell; stimulated with IL-4, naïve cells) of the same compound?
**A.** Its value is 39%.

**Q.** Which “proliferative response in ASM cells” value (ASM cells) does the source give for “Asp^1-Met^2-His^3-Asp^4-Phe^5-Phe^6-Val^7-Gly^8-Leu^9-Met^10-NH2 (DMHDFFVGLM-NH2) [NKB]” here?
**A.** Its value is “Neither NKA nor NKB induced significant proliferative responses”.

**Q.** What does the source list for “His^1-Lys^2-Thr^3-Asp^4-Ser^5-Phe^6-Val^7-Gly^8-Leu^9-Met^10-NH2 (HKTDSFVGLM-NH2) [NKA]”?
**A.** proliferative response in ASM cells (ASM cells): Neither NKA nor NKB induced significant proliferative responses; ASM cell count (ASM cells; highest administered concentration of 10^−4M): relatively modest increase in ASM cell count
